Test systems include SK-MEL-2 melanoma; EKVX NSCLC; OVCAR-4 ovarian; UACC-257 melanoma; RPMI-8226 leukemia; TK-10 renal; ACHN renal; SK-MEL-5 melanoma; MALME-3M melanoma; SF-295 CNS; HCT-15 colon; NCI-H23 lung; HCT-116 colon; UACC-62 melanoma; IGROV1 ovarian.
What all share (assay): NCI anticancer screen, dose series, 48 h

The structures appear in SMILES notation.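 All cell lines were grown in 96-well plates and treated with compound for 48 hours. Definition used: TGI = concentration required for complete inhibition of growth.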

Consider `COC(=O)c1ccc(OCc2ccc3nc(OC)c(OC)nc3c2)cc1`, for which the TGI in the assay on SK-MEL-2 melanoma, in the assay with EKVX NSCLC, in the assay with OVCAR-4 ovarian, with UACC-257 melanoma, in the assay on RPMI-8226 leukemia and in the assay with TK-10 renal was more than 100 µM each time. For the same molecule, the TGI in the assay with ACHN renal, in the assay with SK-MEL-5 melanoma, in the assay on MALME-3M melanoma, in the assay on SF-295 CNS, with HCT-15 colon and in the assay on NCI-H23 lung was more than 100 µM throughout. The same molecule returned a TGI in the assay with HCT-116 colon of more than 100 µM.

For `CC1=NN(c2ccccc2)C(=O)C1=C1SCCS1`, the TGI is more than 100 µM in the assay on SK-MEL-2 melanoma; more than 100 µM with EKVX NSCLC; more than 100 µM in the assay with UACC-62 melanoma; more than 100 µM in the assay with OVCAR-4 ovarian; more than 100 µM in the assay with UACC-257 melanoma; more than 49.5 µM in the assay with RPMI-8226 leukemia. The TGI was more than 100 µM with TK-10 renal; more than 100 µM with ACHN renal; more than 100 µM with SK-MEL-5 melanoma; more than 100 µM in the assay on MALME-3M melanoma; more than 100 µM in the assay with SF-295 CNS; more than 59.7 µM in the assay on HCT-15 colon. Besides, the TGI in the assay on NCI-H23 lung is more than 100 µM; in the assay on IGROV1 ovarian, more than 100 µM; in the assay with HCT-116 colon it was more than 64.6 µM.

For `O=C1CCCCC1CN1CCCC1` (stereo unspecified), the TGI in the assay with SK-MEL-2 melanoma, in the assay on EKVX NSCLC, in the assay with OVCAR-4 ovarian, with UACC-257 melanoma, with RPMI-8226 leukemia and with TK-10 renal was more than 100 µM in each case. For the same molecule, the TGI in the assay with ACHN renal, in the assay with SK-MEL-5 melanoma, in the assay on SF-295 CNS, in the assay on HCT-15 colon, in the assay on NCI-H23 lung and in the assay with IGROV1 ovarian was more than 100 µM in each case. Moreover, the TGI with HCT-116 colon was more than 100 µM.

As for `O=S1(=O)OCCOS(=O)(=O)C1I`, the TGI with SK-MEL-2 melanoma, with EKVX NSCLC, in the assay with UACC-62 melanoma, in the assay with OVCAR-4 ovarian, with UACC-257 melanoma and in the assay on RPMI-8226 leukemia was more than 100 µM throughout. Besides, the TGI in the assay with TK-10 renal, with SK-MEL-5 melanoma, in the assay on MALME-3M melanoma, in the assay with SF-295 CNS, with NCI-H23 lung and with IGROV1 ovarian was more than 100 µM throughout. Besides, the TGI in the assay on HCT-116 colon is more than 100 µM.

With `CC1(C)COC(C23C4C5C2C2C3C4C52I)=N1` (stereo unspecified), the TGI in the assay with EKVX NSCLC, in the assay on UACC-62 melanoma, in the assay with OVCAR-4 ovarian, in the assay on UACC-257 melanoma, in the assay with RPMI-8226 leukemia and with TK-10 renal was more than 100 µM each time. Further, the TGI with ACHN renal, in the assay on SK-MEL-5 melanoma, in the assay on MALME-3M melanoma, in the assay on SF-295 CNS, in the assay on HCT-15 colon and in the assay with NCI-H23 lung was more than 100 µM in each case. In addition, the TGI with IGROV1 ovarian was more than 100 µM.

On to `CNC(=O)CN(CC(=O)NC)C(=O)NC`, for which the TGI with SK-MEL-2 melanoma, in the assay on EKVX NSCLC, with UACC-62 melanoma, in the assay with OVCAR-4 ovarian, in the assay with UACC-257 melanoma and with RPMI-8226 leukemia was more than 100 µM throughout. Also, the TGI with TK-10 renal, in the assay with ACHN renal, in the assay with SK-MEL-5 melanoma, in the assay with MALME-3M melanoma, in the assay with SF-295 CNS and in the assay on HCT-15 colon was more than 100 µM each time. Further, the TGI in the assay on NCI-H23 lung and in the assay on IGROV1 ovarian was more than 100 µM in each case.

Take `COc1ccc(N2C(=O)C3c4[nH]c5ccccc5c4C4CCCCCCCCCCC4C3C2=O)cc1` (stereo unspecified): the TGI in the assay with SK-MEL-2 melanoma was more than 100 µM; with EKVX NSCLC, more than 52.8 µM; in the assay with UACC-62 melanoma, more than 52.6 µM; in the assay with OVCAR-4 ovarian it was 65.8 µM; in the assay on UACC-257 melanoma it was more than 100 µM; in the assay on RPMI-8226 leukemia it was 43.2 µM. The TGI was more than 73.2 µM in the assay with TK-10 renal; more than 60.3 µM in the assay with ACHN renal; more than 59.6 µM with SK-MEL-5 melanoma; more than 47.2 µM in the assay with MALME-3M melanoma; 39.4 µM in the assay on SF-295 CNS; 19.9 µM with HCT-15 colon. Moreover, the results for the TGI with NCI-H23 lung, in the assay on IGROV1 ovarian and in the assay on HCT-116 colon were more than 33.1 µM, more than 48.7 µM and 15.6 µM, respectively.

`COc1c(Cl)c2c(c(OC)c1OC)-c1ccc(OC)c(=O)c(Cl)c1C(NC(C)=O)CC2` (stereo unspecified): the TGI is 7.87 µM in the assay on SK-MEL-2 melanoma; more than 100 µM with EKVX NSCLC; 44.6 µM with UACC-62 melanoma; more than 100 µM in the assay with OVCAR-4 ovarian; more than 100 µM in the assay on UACC-257 melanoma; 10.3 µM with RPMI-8226 leukemia. Moreover, the TGI in the assay on TK-10 renal is more than 100 µM; with ACHN renal, more than 100 µM; with MALME-3M melanoma it was more than 100 µM; with SF-295 CNS it was 0.49 µM; with HCT-15 colon, 2.38 µM; in the assay with HCT-116 colon, 0.322 µM.

Regarding `COC(=O)CCCN(C)c1n[nH]c(N)n1`, the TGI in the assay with EKVX NSCLC, in the assay on UACC-62 melanoma, with OVCAR-4 ovarian, in the assay with UACC-257 melanoma, in the assay with RPMI-8226 leukemia and in the assay with TK-10 renal was more than 100 µM each time. For the same molecule, the TGI with ACHN renal, in the assay with SK-MEL-5 melanoma, with SF-295 CNS, in the assay on HCT-15 colon, with NCI-H23 lung and with IGROV1 ovarian was more than 100 µM each time. The molecule further gave a TGI in the assay with HCT-116 colon of more than 100 µM.

As for `CCOC(=O)/C(=C\c1ccc(O)c(OC)c1)C(=O)c1ccccc1`, the TGI in the assay on SK-MEL-2 melanoma was 34.8 µM; in the assay with EKVX NSCLC it was more than 53.3 µM; in the assay on UACC-62 melanoma it was 28.6 µM; in the assay on OVCAR-4 ovarian, more than 40.3 µM; in the assay with UACC-257 melanoma, more than 49.7 µM; in the assay on RPMI-8226 leukemia, 42.1 µM. In addition, the TGI in the assay on TK-10 renal is more than 57.5 µM; in the assay on ACHN renal, 36 µM; in the assay with SK-MEL-5 melanoma it was 29.8 µM; with MALME-3M melanoma, more than 49 µM; in the assay on SF-295 CNS, more than 52.6 µM; with HCT-15 colon, 24.8 µM. Moreover, the TGI in the assay with NCI-H23 lung was found to be 23.7 µM; in the assay with IGROV1 ovarian it was 39 µM; in the assay on HCT-116 colon, 28.7 µM.

The values are drawn from PubChem BioAssay (NCI).
